Reference: patent US9725702B2, “Laccase from ganoderma lucidum capable of enhancing enzymatic degradation of lignocellulolytic biomass” (DANMARKS TEKNISKE UNIVERSITET, priority 2012, dated 2017)
Read-outs that look alike come from different tables or passages of the source.

How the values were obtained:
[1] = test system: LacGL1 laccase from Ganoderma lucidum, expressed in Pichia pastoris; assay type: biochemical
Method: (§1) The laccase activity was measured based on a modified method of Ters et al. (2009). The laccase activity was defined as the amount of the enzyme required to oxidise 1 μmol of ABTS per minute at 25° C., and pH 4.7. The assay mixture contained: 0.1 M citrate-phosphate buffer (255 μL, pH 4.7), ABTS (5 μL, 4 mM (ABTS stock solution)), and pre-diluted laccase (5 μL) that ensured the linear range of Michaelis-Menten kinetics. The oxidation of ABTS was monitored at 420 nm (ε420=36800 M^−1cm^−1) for 2 min. in an Infinite 200 microtiter plate reader (Tecan, Salzburg, Austria). Laccase activity assays on the substrates: hydroquinone (248 nm), 2.6-dimethoxyphenol (470 nm), and guaiacol (436 nm) was done similarly with the substrate concentration as described in Table 2 using the following extinction coefficient values: 17.542 M^−1cm^−1, 35.645 M^−1cm^−1, and 6.400 M^−1cm^−1, respectively (Minussi et al. 2007). The data collection was monitored by the program Tecan i-control version 1.5.14.0 (Tecan, Salzburg, Austria).

fungal laccase = assay type: biochemical, Ganoderma lucidum
Method: as §1

[2] = test system: laccase from the crude extract of G. lucidum (Lac_GLCE); assay type: biochemical, Ganoderma lucidum
Method: as §1

[3] = Michaelis constant (Km) of laccase for ABTS, Hanes-Wolf plot; assay type: biochemical; conditions: substrate ABTS
[4] = Laccase-cellulase catalyzed hydrolysis of pretreated biomass, glucose release; assay type: biochemical; conditions: with cellulase 1 or 2, pH 5.1, 50° C., 30 hour, p<0.05
Method: (§2) FIG. 13. A graphical comparison of glucose released over time during hydrolysis of STEX-SCB at pH 5.1 and 50° C. by each of commercial enzyme preparations Cellulase 1 (CC2) [A]; or Cellulase 2 [B], either alone, or in combination with a laccase enzyme; the tested laccases being respectively LacGL1 and GLlac1 (LacJooSS; Q9HG17) derived from G. lucidum; and laccases derived from Agaricus bisporus (Sigma 40452), Pleurotus ostreatus (Sigma 75117) and, Trametes versicolor (Sigma 51639).
(§3) The commercial fungal laccases were purchased as lyophilized protein samples from Sigma Aldrich. A solution of each of the above 5 laccases was prepared in a citric buffer containing 20% of glycerol (pH 5.1, 100 mM).
(§4) Two different commercially available cellulase enzyme preparations used in the comparative study were “Cellulase 1” and “Cellulase 2”, which were tested in combination with each of the laccases listed above.
(§5) The three different types of pretreated biomass used in the comparative study were sugarcane bagasse, barley straw and wheat straw. The source and pre-treatment of the sugarcane bagasse by steam explosion was as set out in Example 9. […] The composition of the dry and the pretreated biomass were determined according to the US National Renewable Energy Laboratory (NREL) procedures (Sluiter et al, 2010).
(§6) The laccase-cellulase catalyzed hydrolysis of the pretreated biomass samples to release glucose was performed as follows: Hydrolysis of 5% (w/v) samples of pretreated sugarcane bagasse, barley straw, and wheat straw biomass were assayed using an Enzyme/Substrate (E/S) ratio of 0.064% w/w for laccases and of 0.4% w/w for each commercial cellulase preparation in each hydrolysis reaction. The E/S dosage was based on the total protein concentration used, as determined using Pierce BCA (BiCinchoninic Acid) protein assay kit microplate procedure according to manufacturer's instruction (Thermo Fisher Scientific, Rockford, US). […]
(§7) Laccase and cellulase-mediated hydrolysis of the 3 biomass forms, measured as glucose release, are shown graphically in FIGS. 13, 14 and 15. […]

[5] = as above; assay type: biochemical; conditions: with cellulase 1 or 2, pH 5.1, 50° C., 30 hour, p<0.05; remark: listed apart in the source
Method: as §2, with “14.” for “13.”, “pre-treated barley straw” for “STEX-SCB”
as §3, §4, §5, §6, §7

[6] = as above; assay type: biochemical; conditions: with cellulase 1 or 2, pH 5.1, 50° C., 30 hour, p<0.05; remark: listed apart in the source
Method: as §2, with “15.” for “13.”, “pre-treated wheaty straw” for “STEX-SCB”
as §3, §4, §5, §6, §7

[7] = cited from earlier work; for Km: ABTS, expressed in Pichia pastoris (Sun et al., 2012)

## O[C@H](CS)[C@H](O)CS (racemic) [Dithiothreitol]
[1]; 0.5 mM
  Inhibition: 100%
Fungal laccase; 0.5 mM
  Inhibition: 100%
[2]; 0.5 mM
  Inhibition: 100%

## [F-].[Na+] [Sodium fluoride]
[1]; 0.0001 mM
  Inhibition: 8%
[1]; 0.0005 mM
  Inhibition: 13%
[1]; 0.001 mM
  Inhibition: 19%
[1]; 0.01 mM
  Inhibition: 22%
[1]; 0.1 mM
  Inhibition: 46%
Fungal laccase; 0.1 mM
  Inhibition: 46-56%
[2]; 0.0001 mM
  Inhibition: 23%
[2]; 0.0005 mM
  Inhibition: 24%
[2]; 0.001 mM
  Inhibition: 28%
[2]; 0.01 mM
  Inhibition: 38%
[2]; 0.1 mM
  Inhibition: 56%

## O=C(O)CN(CCN(CC(=O)O)CC(=O)O)CC(=O)O [EDTA]
[1]
  Inhibition: 16%
Fungal laccase
  Inhibition: 16-30%
[2]
  Inhibition: 30%

B1: Ganoderma lucidum CBS229.93 laccase: Native laccase secreted by Ganoderma lucidum CBS229.93, about 62.5 kDa (protein, listed as Ganoderma lucidum)
chain: MAKFQSLLSCVTLLFAASAYAGIGPKTDLTISNADVAPDGYTRAAVVVNGVFPAPLITGNKGDRFQLNVIDQMTNHTMLKSTSIHWHGFFQKGTNWADGPAFINQCPISSGHSFLYDFQVPDQAGTFWYHSHLSTQYCDGLRGPFVVYDPKDPLKKLYDIDDDSTVITLTDWYHVAARLGPRFPLGSDSTLINGLGRSTTNVTADLAVINVTQGKRYRFRLVSLSCDPNYTFSIDDHNMTVIEADGIETQPVTVNAIQIFSAQRYSFVLTANQTIDNYWIRANPNFGNVGFTDGINSAILRYAGADPVEPTTSQQTTQNLLNEVDLHPFVPKRTPGQPTQGGVDTAINMVFNFNGSNFFINNASFVPPTVPVLLQILSGAQAAQDLLPSGSVYTLPVNKSIELTFPATANAPGAPHPFHLHGHAFAVVRSAGSTVYNYDNPVWRDVVSTGTPAAGDNVTIRFQTDNPGPWFLHCHIDFHLEAGFAVVFAEDPTDTSLANPVPKAWSDLCPTYDALSVDDQ
[3]; pH 5
  Km: 107 µM
[3]; laccase expressed in Ganoderma lucidum CBS229.93 (native)
  Km: 107 µM

B2: GLlac1: Laccase from Ganoderma lucidum strain 7071-9 (UniProt Q9HG17, SEQ ID NO: 29), expressed in Pichia pastoris (protein, listed as Ganoderma lucidum)
chain: MVKFQSLLSCVTLLFAASAHAGIGPKADLTISNANIAPDGYTRAAVVVNGVFPGPLITGNKGDRFQLNVIDQLTNHTMLKTTSIHWHGFFQKGTNWADGPAFINQCPIASGHSFLYDFQVPDQAGTFWYHSHLSTQYCDGLRGPFVVYDPKDPLKGLYDVDNDSTVITLSDWYHVAARLGPSFPLGSDSTLINGLGRSTTNATAGLAVINVTQGKRYRFRLVSLSCDPNYTFSIDGHDMSVIEADGIATQPVTANAIQIFSAQRYSFVLTANQTIGNYWIRANPSFGNIGFTNGINSAILRYSGADPIEPTTAQQTTQNLLNEVDLHPFVAKQTPGRATQGGTDVAINMVFNFNGSNFFINNASFTPPTVPVLLQILSGAQAAQDLLPSGSVYTLPINKSIELTFPATVNAPGAPHPFHLHGHSFAVVRSAGSTEYNYNNPVWRDVVSTGTPAAGDNVTIRFQTDNPGPWFLHCHIDFHLEAGFAVVFAEDTADTSLANHVPQAWSDLCPTYDALSADDH
[4]
  glucose release compared to the other tested laccases: significantly enhanced
[5]
  glucose release compared to the other tested laccases: significantly enhanced
[6]
  glucose release compared to the other tested laccases: significantly enhanced
[7]
  Km: 995 µM
[7]; listed as GILCC1
  Km: 996 µM
[7]; literature
  pH optimum: 2.6
